Data reported in patent publication US20190119300A1, “SUBSTITUTED AND FUSED 6-MEMBERED PROTEASE ACTIVATED RECEPTOR 4 (PAR-4) ANTAGONISTS” (Vanderbilt University, priority 2016, published 2019).

Columns and labels:
PAR-4 [1] = biological target: T1, PAR-4 (Homo sapiens, UniProt Q96RI0); assay: PAC-1 binding assay, washed platelets stimulated with PAR-4-AP (flow cytometry); assay type: cell-based; conditions: PAR-4-AP stimulation; for remaining activity at 10 µM: 10 μM antagonist, 100% = DMSO control stimulated, read-out: PAR-4 AP % Max PAC-1 binding (10 μM); for IC50: read-out: PAR-4 AP % Max PAC-1 binding (IC50 [M])
T1 construct: endogenous in cells; host or cells: washed platelets
T1 sequence (Q96RI0 18-385): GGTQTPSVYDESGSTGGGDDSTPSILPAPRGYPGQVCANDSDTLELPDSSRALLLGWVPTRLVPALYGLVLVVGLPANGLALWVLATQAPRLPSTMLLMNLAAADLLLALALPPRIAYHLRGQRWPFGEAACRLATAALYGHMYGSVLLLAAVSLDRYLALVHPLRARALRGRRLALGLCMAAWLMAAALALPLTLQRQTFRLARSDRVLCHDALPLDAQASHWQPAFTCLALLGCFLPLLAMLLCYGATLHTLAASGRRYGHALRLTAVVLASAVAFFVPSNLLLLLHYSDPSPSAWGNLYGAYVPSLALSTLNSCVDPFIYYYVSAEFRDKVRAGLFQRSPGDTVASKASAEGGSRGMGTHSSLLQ
Protocol: (§1) PAC-1 Binding assay: 60 μL of washed platelets (Tyrodes buffer containing 0.1% BSA) at a concentration of 0.15×10^8 platelets/mL were added to 5 mL round bottom polystyrene tubes (BD, Franklin Lakes, N.J.). FITC conjugated PAC-1 (BD Biosciences, San Jose, Calif.) antibody was diluted (to the manufacturers recommended concentration) in Tyrode's buffer containing 0.1% BSA. 40 μL of diluted antibody was added to the platelets and allowed to incubate for 5 minutes. Platelets were pre-treated with indicated concentrations of antagonist or DMSO control for 20 minutes (the final DMSO concentration was 0.5%) followed by addition of PAR-1-AP (GL Biochem, Shanghai, China), PAR-4-AP, or gamma-thrombin for 10 minutes. Platelet activity was quenched by the addition ice cold 1.5% paraformaldehyde followed by dilution in 1× phosphate buffered saline. Platelets were stored up to 18 hours at 4° C. before flow cytometric analysis. Analysis was carried out on a BD FACS Canto II or BD LSRII (Franklin Lakes, N.J.). Fluorescent intensity was determined for at least 20,000 events within the platelet gate (forward scatter versus side scatter). Data was collected and analyzed via FACS DiVa or FlowJo software. Flow cytometric data analysis was conducted by the following method. The DMSO-vehicle treated control was subtracted from each data point. 100% response for PAR-4-AP was determined for each individual as the DMSO treated control stimulated with PAR-4-AP, PAR-1-AP, or gamma-thrombin. Data was plotted in GraphPad PRISM v.5.0. For compounds with a notable reduction in PAC-1 binding response, dose response curves and IC50 values were generated using the inhibitory sigmoidal dose response ‘variable slope’ parameter. Results were plotted as mean±SEM.

PAR-4 [2] = biological target: T1, PAR-4; assay: PAC-1 binding assay, washed platelets stimulated with 100 nM gamma-thrombin (flow cytometry); assay type: cell-based; conditions: 100 nM γ-thrombin stimulation
Source text: Gamma-thrombin is a proteolytic product of alpha-thrombin cleavage by a serine protease. Cleavage results in the disruption of exosite I which interacts directly with the hirudin-like domain of its primary substrates fibrinogen and protease-activated receptor 1 (PAR1). […] See Soslau, G., Class, R., Morgan, D. A., Foster, C., Lord, S. T., Marchese, P., and Ruggeri, Z. M. (2001) Unique pathway of thrombin-induced platelet aggregation mediated by glycoprotein Ib, The Journal of biological chemistry 276, 21173-21183. Gamma-thrombin (Enzyme Research Laboratories, South Bend, Indiana) is produced by trypsin-sepharose cleavage of alpha-thrombin. To neutralize alpha-thrombin contamination, stock solutions of gamma-thrombin are preincubated with 1 unit/mL hirudin prior 100 fold dilution into the sample for platelet stimulation. […] Single point screens and concentration response curves are conducted with 316 nanomolar or 100 nanomolar gamma-thrombin using PAC1 and CD62p binding.
as §1

| Compound | remaining activity at 10 µM (PAR-4 [1]) | IC50 (PAR-4 [1]) | IC50 (PAR-4 [2]) |
| --- | --- | --- | --- |
| COc1nn2cc(-c3c(F)cccc3F)nc2s1 [Example B4] | 1.29% |  |  |
| COc1nn2cc(-c3ccc(F)cc3F)nc2s1 [Example B5] | 0.21% | 1.75e-07 M |  |
| COc1nn2cc(-c3ccc(Br)cc3F)nc2s1 [Example B6] | 2.82% | 1.96e-07 M |  |
| COc1nn2cc(-c3ccc(Oc4ccccc4)cc3)nc2s1 [Example B9] | -0.09% | 1.43e-07 M |  |
| COc1nn2cc(-c3ccc(O)cc3O)nc2s1 [Example B13] | 98.4% |  |  |
| COc1nn2cc(-c3ccccc3O)nc2s1 [Example B14] | 92.7% |  |  |
| COc1nn2cc(-c3ccccc3OC)nc2s1 [Example B15] | 8.45% | 3.95e-06 M |  |
| COc1nn2cc(-c3ccccn3)nc2s1 [Example B18] | 18.6% | 2.22e-05 M |  |
| COc1nn2cc(-c3ccc(Cl)c(Cl)c3)nc2s1 [Example B20] | -0.92% |  |  |
| COc1nn2cc(-c3ccccc3Cl)nc2s1 [Example B21] | 0.74% | 4.54e-07 M |  |
| COc1nn2cc(-c3cccnc3)nc2s1 [Example B22] | 81.3% |  |  |
| COc1nn2cc(-c3cccc(Cl)c3)nc2s1 [Example B23] | -1.07% | 6.9e-08 M | > 1000 nM |
| COc1nn2cc(-c3ccc(Cl)c([N+](=O)[O-])c3)nc2s1 [Example B26] | 1.52% | 9.95e-08 M |  |
| COc1nn2cc(-c3ccccc3F)nc2s1 [Example B30] | -0.14% | 5.26e-07 M |  |
| CCOc1nn2cc(-c3c(F)cccc3F)nc2s1 [Example B32] | 3.47% | 1.17e-06 M |  |
| Fc1cccc(F)c1-c1cn2nc(OC3CCCC3)sc2n1 [Example B34] | 109% |  |  |
| CCOc1nn2cc(-c3cccc(Cl)c3)nc2s1 [Example B35] | 2.31% | 1.24e-06 M |  |
| Clc1cccc(-c2cn3nc(OC4CCCC4)sc3n2)c1 [Example B38] | 99.5% |  |  |
| COc1nn2cc(-c3ccc(OCc4csc(-c5ccccc5)n4)cc3)nc2s1 [Example B43, 2-Methoxy-6-(4-((2-phenylthiazol-4-yl)methoxy)phenyl)imidazo[2,1-b][1,3,4]thiadiazole] | 0.91% | 1.33e-06 M |  |
| CC(C)COc1nn2cc(-c3c(F)cccc3F)nc2s1 [Example B44] | 93.7% |  |  |
| COc1nn2cc(-c3ccc4ncn(C)c4c3)nc2s1 [Example B45] | 48.1% |  |  |
| COc1nn2cc(-c3ccc(N4CCOCC4)cc3)nc2s1 [Example B46] | 10.4% |  |  |
| COc1nn2cc(-c3cccc(OCc4csc(-c5ccccc5)n4)c3)nc2s1 [Example B47] | -0.27% | 4.32e-08 M | ≥ 1000 nM |
| COc1nn2cc(-c3ccccc3OCc3csc(-c4ccccc4)n3)nc2s1 [Example B48] | 96% |  |  |
| COc1nn2cc(-c3ccccc3[N+](=O)[O-])nc2s1 [Example B49] | 17.1% | > 1e-06 M |  |
| COc1nn2cc(-c3cccc([N+](=O)[O-])c3)nc2s1 [Example B50] | 6.82% | > 1e-06 M |  |
| COc1nn2cc(-c3ccc(-c4ccccc4)cc3)nc2s1 [Example B51] | 72.7% |  |  |
| COc1cccc(-c2cn3nc(OC)sc3n2)c1 [Example B53] | -0.071% | 2.91e-07 M |  |
| COc1nn2cc(-c3ccc4sccc4c3)nc2s1 [Example B54] | 20.7% | 7.75e-08 M | > 1000 nM |

The next lines start with the values.

| remaining activity at 10 µM (PAR-4 [1]) | IC50 (PAR-4 [1]) | IC50 (PAR-4 [2]) | Compound |
| --- | --- | --- | --- |
| -1.91% |  |  | COc1nn2cc(-c3ccc(C(F)(F)F)cc3)nc2s1 [Example B1] |
| -0.14% | 1.33e-06 M |  | COc1nn2cc(-c3ccccc3C(F)(F)F)nc2s1 [Example B2] |
| -0.26% |  |  | COc1nn2cc(-c3cccc(C(F)(F)F)c3)nc2s1 [Example B3] |
| 1.47% | 6.85e-07 M |  | COc1nn2cc(-c3cccc(F)c3)nc2s1 [Example B7] |
| 1.48% | 7.08e-07 M |  | COc1nn2cc(-c3ccccc3)nc2s1 [Example B8] |
| -1.59% | 6.25e-07 M |  | COc1ccc(-c2cn3nc(OC)sc3n2)cc1 [Example B10] |
| 4.19% | 1.09e-06 M |  | COc1nn2cc(-c3ccc(S(C)(=O)=O)cc3)nc2s1 [Example B11] |
| 1.78% | 5.2e-08 M | > 1000 nM | COc1nn2cc(-c3ccc(C)cc3)nc2s1 [Example B12, 2-methoxy-6-(p-tolyl)imidazo[2,1-b][1,3,4]thiadiazole] |
| 91.2% |  |  | COc1nn2cc(-c3ccc(O)cc3)nc2s1 [Example B16] |
| 0.93% | 8.95e-07 M |  | COc1nn2cc(-c3ccc(C#N)cc3)nc2s1 [Example B17] |
| 0.02% |  |  | COc1nn2cc(-c3ccc(Cl)cc3)nc2s1 [Example B19] |
| 3.35% | 1.63e-07 M |  | COc1nn2cc(-c3ccc(-c4cccs4)cc3)nc2s1 [Example B24] |
| -0.34% | 5.23e-08 M | > 1000 nM | COc1nn2cc(-c3cc(C(F)(F)F)cc(C(F)(F)F)c3)nc2s1 [Example B25] |
| -0.2% |  |  | COc1nn2cc(-c3ccc(OC(F)(F)F)cc3)nc2s1 [Example B27] |
| -0.21% | 8.34e-08 M | > 1000 nM | COc1nn2cc(-c3ccc(OC(F)F)cc3)nc2s1 [Example B28] |
| -0.45% |  |  | COc1nn2cc(-c3ccc(F)c(C(F)(F)F)c3)nc2s1 [Example B29] |
| 1.6% | 2.07e-07 M |  | COc1nn2cc(-c3ccc([N+](=O)[O-])cc3)nc2s1 [Example B31] |
| 102% |  |  | CC(C)Oc1nn2cc(-c3c(F)cccc3F)nc2s1 [Example B33] |
| 63.2% |  |  | CC(C)Oc1nn2cc(-c3cccc(Cl)c3)nc2s1 [Example B36] |
| 97.3% |  |  | CC(C)COc1nn2cc(-c3cccc(Cl)c3)nc2s1 [Example B37] |
| 2.21% | 6.48e-07 M |  | CCOc1nn2cc(-c3ccc(C(F)(F)F)cc3)nc2s1 [Example B39] |
| 81.5% |  |  | CC(C)Oc1nn2cc(-c3ccc(C(F)(F)F)cc3)nc2s1 [Example B40] |
| 102% |  |  | CC(C)COc1nn2cc(-c3ccc(C(F)(F)F)cc3)nc2s1 [Example B41] |
| 114% |  |  | FC(F)(F)c1ccc(-c2cn3nc(OC4CCCC4)sc3n2)cc1 [Example B42] |
| 0.063% | 4.06e-07 M |  | COc1nn2cc(-c3ccc(F)cc3)nc2s1 [Example B52] |
